Test results as given in publication PMC9995496, “A screen for MeCP2-TBL1 interaction inhibitors using a luminescence-based assay” (Scientific Reports, 2023).
Where a name gives a salt, the structure may show the parent alone. Read-outs that look alike come from different tables or passages of the source.

Test system: PRKACA-PRKAR2A interaction (SmBiT-PRKACA / LgBiT-PRKAR2A), protein kinase A
Parameters: NanoLuc complementation counter-screen in cell extract, PRKACA with PRKAR2A, loss of luminescence, detects NanoLuc interference
Settings: counter-screen for NanoLuc interference, 0.5 h, 20 µM, inhibitor

Row | Compound | Inh (PKA) [%] | Inh (PKA) (Inh (PKA)) [%]
1 | O=C(O)CCNc1cc(N2CCc3ccccc3CC2)nc(-c2ccccn2)n1 [UM0141755:01, GSK J1] | 1.8 | 
2 | CN1CCC(CNc2ccc3ncc(-c4cccc(OC(F)(F)F)c4)n3n2)CC1 [UM0141756:01, SGI-1776 free base] | 32.18 | 
3 | O=C1NC(=O)/C(=C/c2cccc(C(F)(F)F)c2)S1 [UM0141757:01, SMI-4a] | 63.38 | 
4 | COC1=CC(c2cc3ccccc3[nH]2)=N/C1=C\c1[nH]c(C)cc1C [UM0141758:01, Obatoclax mesylate (GX15-070)] | 43.77 | 
5 | Cc1cc2c(C(=O)NC[C@H](C)c3ccccc3)c(O)c(O)cc2c(O)c1-c1c(C)cc2c(C(=O)NC[C@H](C)c3ccccc3)c(O)c(O)cc2c1O [UM0141759:01, Sabutoclax] | 12.84 | 
6 | OCc1ccc(-c2ccc(-c3ccc(CO)s3)o2)s1 [UM0141761:01, RITA (NSC 652287)] | 10.18 | 
7 | C/C(=N\NC(=S)N1CCC1)c1ccccn1 [UM0141763:01, NSC 319726] | 3.72 | 
8 | Nc1cccc2c1C(=O)N(C1CCC(=O)NC1=O)C2=O (stereo not shown) [UM0141764:01, Pomalidomide (CC-4047)] | 2.798 | 
9 | CN1C(=O)C(Cc2c[nH]c3ccccc23)NC1=S (stereo not shown) [UM0141765:01, Necrostatin-1] | 5.445 | 
10 | O=C1CCC(N2C(=O)c3ccccc3C2=O)C(=O)N1 (stereo not shown) [UM0141766:01, Thalidomide] | -0.2984 | 
11 | COCC[n+]1c2c(n(Cc3cnccn3)c1C)C(=O)c1ccccc1C2=O [UM0141767:01, YM155] | 0.9715 | 
12 | COc1ccc(C2=N[C@@H](c3ccc(Cl)cc3)[C@@H](c3ccc(Cl)cc3)N2C(=O)N2CCNC(=O)C2)c(OC(C)C)c1 [UM0141768:01, Nutlin-3] | 1.968 | 
13 | CC(C)c1ccccc1Cc1cc(C(=O)Nc2ccc(S(=O)(=O)c3ccccc3C(C)(C)C)cc2)c(O)c(O)c1O [UM0141770:01, TW-37] | 2.732 | 
14 | S=C(NCc1ccc2c(c1)OCO2)N1CCN(c2ncnc3c2oc2ccccc23)CC1 [UM0141771:01, Amuvatinib (MP-470, HPK 56)] | 7.726 | 
15 | C[C@]12CC[C@H](O)CC1=CC[C@@H]1[C@@H]2CC[C@]2(C)C(c3cccnc3)=CC[C@@H]12 [UM0141772:01, Abiraterone] | 5.429 | 
16 | O=C(Nc1ccncc1)c1cc([N+](=O)[O-])ccc1Cl [UM0141773:01, T0070907] | 6.091 | 
17 | Cc1cccc(Nc2cc(Cl)nc(SCC(=O)O)n2)c1C [UM0141774:01, WY-14643 (Pirinixic Acid)] | 22.49 | 
18 | Cc1cc(SCc2sc(-c3ccc(C(F)(F)F)c(F)c3)nc2C)ccc1OCC(=O)O [UM0141775:01, GW0742] | 20.87 | 
19 | CC(C)c1nc(CN(C)C(=O)N[C@@H](CCN2CCOCC2)C(=O)N[C@H](CC[C@H](Cc2ccccc2)NC(=O)OCc2cncs2)Cc2ccccc2)cs1 [UM0141776:01, Cobicistat (GS-9350)] | 4.362 | 
20 | CCOc1cc([C@@H](CS(C)(=O)=O)N2C(=O)c3cccc(NC(C)=O)c3C2=O)ccc1OC [UM0141777:01, Apremilast (CC-10004)] | 1.324 | 
21 | CC(C)c1cc(C(C)C)c(CC(=O)NS(=O)(=O)Oc2c(C(C)C)cccc2C(C)C)c(C(C)C)c1 [UM0141778:01, Avasimibe] | 69.24 | 
22 | O=C(Nc1c(Cl)cncc1Cl)c1ccc(OC(F)F)c(OCC2CC2)c1 [UM0141779:01, Roflumilast] | 21.52 | 

Row | Compound | Inh (PKA) [%] | Inh (PKA) (Inh (PKA)) [%]
23 | C[C@@H](c1ncncc1F)[C@](O)(Cn1cncn1)c1ccc(F)cc1F [UM0141780:01, Voriconazole] | 0.951 | 
24 | CCCc1nn(C)c2c(=O)[nH]c(-c3cc(S(=O)(=O)N4CCN(C)CC4)ccc3OCC)nc12 [UM0141781:01, Sildenafil Citrate] |  | 4.187
25 | CCCc1nc(C)c2c(O)nc(-c3cc(S(=O)(=O)N4CCN(CC)CC4)ccc3OCC)nn12 [UM0141782:01, Vardenafil HCl Trihydrate] | 3.783 | 
26 | CCc1ccc(CCOc2ccc(CC3SC(=O)NC3=O)cc2)nc1 (stereo not shown) [UM0141783:01, Pioglitazone HCl] | 13.53 | 
27 | Cn1cc(-c2ccncc2)c(-c2ccc(OCc3ccc4ccccc4n3)cc2)n1 [UM0141784:01, PF-2545920] | 39.54 | 
28 | CNC(=O)c1ccc2cc([C@@]3(O)CCn4cncc43)ccc2c1 [UM0141785:01, TAK-700 (Orteronel)] | 0.0216 | 
29 | COc1ccc(C2CNC(=O)C2)cc1OC1CCCC1 (stereo not shown) [UM0141786:01, Rolipram] | -0.06153 | 
30 | COc1ccc([C@H]2CNC(=O)C2)cc1OC1CCCC1 [UM0141786:02, S- (+)-Rolipram] | 3.135 | 
31 | COc1ccc([C@]2(C#N)CC[C@@H](C(=O)O)CC2)cc1OC1CCCC1 [UM0141787:01, Cilomilast] | 0.1397 | 
32 | COc1cccc(Nc2c(C(N)=O)cnc3c(C)cc(S(=O)(=O)c4cccc(C(=O)N(C)C)c4)cc23)c1 [UM0141788:01, GSK256066] | 11.7 | 
33 | NCc1c[nH]c(=S)n1[C@H]1CCc2c(F)cc(F)cc2C1 [UM0141789:01, Nepicastat (SYN-117) HCl] | 5.542 | 
34 | O=C(O)CCCCC(CCSCc1ccccc1)SCc1ccccc1 (stereo not shown) [UM0141790:01, CPI-613] | 31.69 | 
35 | COc1ccc(CNc2nc(N3CCC[C@H]3CO)ncc2C(=O)NCc2ncccn2)cc1Cl [UM0141791:01, Avanafil] | 18.48 | 
36 | COc1c(C)c2c(c(O)c1C/C=C(\C)CCC(=O)OCCN1CCOCC1)C(=O)OC2 [UM0141793:01, Mycophenolate Mofetil] | 3.705 | 
37 | O=C(NC[C@H]1CN(c2ccc(N3CCOCC3=O)cc2)C(=O)O1)c1ccc(Cl)s1 [UM0141794:01, Rivaroxaban] | 3.84 | 
38 | Cc1ccccc1C(C(=O)NC1CCCCC1)N(C(=O)Cn1ccnc1C)c1cccc(F)c1 (stereo not shown) [UM0141795:01, AGI-5198] | 4.354 | 
39 | COc1ccc(-c2nc3cc(C4=NNC(=O)CC4C)ccc3[nH]2)cc1 (stereo not shown) [UM0141796:01, Pimobendan] | 10.77 | 
40 | COc1ccc(-n2nc(C(N)=O)c3c2C(=O)N(c2ccc(N4CCCCC4=O)cc2)CC3)cc1 [UM0141797:01, Apixaban] | 1.88 | 
41 | Oc1cc(O)c(Cl)cn1 [UM0141798:01, Gimeracil] | 0.03154 | 
42 | O=C(O)/C=C/c1ccc(Cn2ccnc2)cc1 [UM0141799:01, Ozagrel] |  | 1.747
43 | O=C(O)Cn1nnc(-c2cc(N3CCC(Oc4cc(F)ccc4Br)CC3)no2)n1 [UM0141800:01, MK-8245] | 15.63 | 
44 | C[C@]12CC[C@H]3[C@@H](CC[C@@]45O[C@@H]4C(O)=C(C#N)C[C@]35C)[C@@H]1CC[C@@H]2O [UM0141801:01, Trilostane] | 1.891 | 

Row | Compound | Inh (PKA) [%] | Inh (PKA) (Inh (PKA)) [%]
45 | C#CCC(Cc1cnc2nc(N)nc(N)c2n1)c1ccc(C(=O)N[C@@H](CCC(=O)O)C(=O)O)cc1 (stereo partly shown) [UM0141802:01, Pralatrexate] | 2.023 | 
46 | O=C(NNc1ccccc1)c1ccncc1 [UM0141803:01, PluriSIn #1 (NSC 14613)] | 1.467 | 
47 | O=C1CN2Cc3c(ccc(Cl)c3Cl)N=C2N1 [UM0141804:01, Anagrelide HCl] | 2.161 | 
48 | CC(C)C[C@@H](C(=O)N[C@H](C(=O)OC1CCCC1)c1ccccc1)[C@H](O)C(=O)NO [UM0141805:01, Tosedostat (CHR2797)] | 5.594 | 
49 | CCc1c(C(=O)C(N)=O)c2c(OCC(=O)O)cccc2n1Cc1ccccc1 [UM0141806:01, Varespladib (LY315920)] | 1.134 | 
50 | NS(=O)(=O)c1ccc(NC(=O)Nc2ccc(F)cc2)cc1 [UM0141807:01, U-104] | 3.096 | 
51 | CC1(C)O[C@@H]2[C@@H](CO[C@@]3(COS(N)(=O)=O)OC(C)(C)O[C@@H]23)O1 [UM0141808:01, Topiramate] | 0.4952 | 
52 | CC(C)n1c(/C=C/[C@@H](O)C[C@@H](O)CC(=O)O)c(-c2ccc(F)cc2)c2ccccc21 [UM0141809:01, Fluvastatin Sodium] | 14.88 | 
53 | C#CCN[C@@H]1CCc2ccccc21 [UM0141810:01, Rasagiline Mesylate] | 2.611 | 
54 | C[C@H](NCc1ccc(OCc2cccc(F)c2)cc1)C(N)=O [UM0141812:01, Safinamide Mesylate] | 2.51 | 
55 | CC[C@H](C)C(=O)O[C@H]1C[C@H](O)C=C2C=C[C@H](C)[C@H](CC[C@@H](O)C[C@@H](O)CC(=O)O)[C@H]21 [UM0141813:01, Pravastatin sodium] | 0.8236 | 
56 | NC(=O)c1cccc(-c2cccc(OC(=O)NC3CCCCC3)c2)c1 [UM0141814:01, URB597] | 16.26 | 
57 | COc1cc(F)c(C(C)C)cc1-c1ccc(C(F)(F)F)cc1CN1C(=O)O[C@H](c2cc(C(F)(F)F)cc(C(F)(F)F)c2)[C@@H]1C [UM0141816:01, Anacetrapib (MK-0859)] | -2.323 | 
58 | CCC(CC)CC1(C(=O)Nc2ccccc2SC(=O)C(C)C)CCCCC1 [UM0141817:01, Dalcetrapib (JTT-705, RO4607381)] | 16.33 | 
59 | Cc1cc(C)c2c(c1)[C@@H](N(Cc1cc(C(F)(F)F)cc(C(F)(F)F)c1)c1nnn(C)n1)CCCN2C[C@H]1CC[C@H](C(=O)O)CC1 [UM0141818:01, Evacetrapib (LY2484595)] | 12.81 | 
60 | CCOC(=O)N1c2ccc(C(F)(F)F)cc2[C@@H](N(Cc2cc(C(F)(F)F)cc(C(F)(F)F)c2)C(=O)OC)C[C@H]1CC [UM0141819:01, Torcetrapib] | 4.254 | 
61 | NC(=O)N1CCC(CC(=O)N2CCC([C@H]3c4ncc(Br)cc4CCc4cc(Cl)cc(Br)c43)CC2)CC1 [UM0141820:01, Lonafarnib] | 11.04 | 
62 | O=C(/C=C/c1cccnc1)NCCCCC1CCN(C(=O)c2ccccc2)CC1 [UM0141821:01, FK866 (APO866)] |  | 3.817
63 | O=C(Nc1ccccc1)Nc1ccc(-c2ccc(C(=O)[C@@H]3CCC[C@H]3C(=O)O)cc2)cc1 [UM0141822:01, A922500] | 32.88 | 
64 | Cc1ccc(C(=O)c2cc(O)c(O)c([N+](=O)[O-])c2)cc1 [UM0141823:01, Tolcapone] | 63.96 | 
